# Tests used:
# Assay type in all cases: cell-based
# SARS-COV-2 [1] = experiment: microbe, parasite or virus in culture
# SARS-COV-2 [2] = test system: SARS-COV-2
# SARS-COV-2 [3] = test system: SARS-COV-2; remark: listed apart in the source
# [4] = test system: HECT E3 ligases, ACE2, TMPRSS2; experiment: Expression of HECT E3 ligases, ACE2 and TMPRSS2 in Vero E6 and Calu-3a cells (RT-qPCR)
# [5] = test system: inflammatory response induced by SARS-COV-2; experiment: Inflammatory and immune-sensing gene expression in infected Calu-3a cells; settings: data not shown
compound,measurement,setting,value
"CC(C)(CO)[C@@H](O)C(=O)NCCC(=O)NCCSSCCNC(=O)CCNC(=O)[C@H](O)C(C)(C)CO [pantethine, (2R,2′ R)—N,N′-(3,12-Dioxo-7,8-dithia-4,11-diazatetradecane-1,14-diyl)bis(2,4-dihydroxy-3,3-dimethylbutanamide)]",infection of Vero E6 cells by SARS-COV-2,SARS-COV-2 [1],reduced significantly and dose dependently
same,inhibition at 100 µM,"SARS-COV-2 [1]; Severe acute respiratory syndrome coronavirus 2, Vero C1008, 72 h, 100 μM, read-out: inhibition of the replication of SARS-COV-2 (Spike protein staining)",~76%
same,inhibition at 1000 µM,"SARS-COV-2 [1]; Severe acute respiratory syndrome coronavirus 2, Vero C1008, 72 h, 1000 μM, read-out: inhibition of the replication of SARS-COV-2 (Spike protein staining)",~98%
same,expression of the viral Spike and Nucleocapsid proteins within infected cells,SARS-COV-2 [2],reduce significantly
same,infection of Calu-3a cells by SARS-COV-2,SARS-COV-2 [3],reduced significantly and dose dependently
same,ACE2 and TMPRSS2 expression,[4],no significant effect
same,HECT E3 ligases expression,[4],no effects
same,infection-induced increase of TMPRSS2 expression,[4],inhibited
same,HECT E3 ligase-increase induced by SARS-CoV-2 infection,"[4]; infected cells in vitro, data not shown",decreased
same,inflammatory response induced by SARS-COV-2,[5],reduced

# Reference: patent US20240173273A1 (priority 2021, published 2024)
